Assays:
Assay type in all cases: in vivo
[1] = tested on: paraquat resistant Lolium biotype RL 1; assay: Greenhouse visual assessment of percentage control, Example 1; details: 14 days after applying
Description: (§1) Aqueous herbicidal compositions comprising water and paraquat alone at various application rates, glufosinate ammonium alone at various application rates and compositions containing water and combinations of these two herbicides were applied over certain paraquat resistant plants. Ammonium sulphate was included in all of the compositions at a concentration of 1% w/v. The effectiveness of the composition in controlling the plants was assessed visually 14 days after applying the herbicide. The assessment was made as a percentage control −0% representing no damage and 100% representing death of all the plants. The plants used were two paraquat resistant Lolium biotypes (referred to as RL 1 and RL 2, collected in South Africa). The plants were grown in a greenhouse to the two-three true leaves stage before the herbicide was applied. Three replicates of each treatment were carried out.
(§2) The results were analysed using the Colby formula which generates an expected level of control from the results obtained by using the individual components alone. This was compared with the actual level of control. The Colby formula predicts that the expected percentage level of control E for a particular combination of components is obtained as follows, in which P1 and P2 are the levels of control obtained by using the components alone
(§3) The figures given in the Synergy column in the table below are the difference between the predicted level of control and the actual level of control. A figure of zero means that the actual result is as predicted by the Colby equation. Any number above zero represents evidence of synergy. Numbers below zero may represent antagonism.

[2] = tested on: paraquat resistant Lolium biotype RL 2; assay: as above; details: 14 days after applying
Description: as §1, §2, §3

[3] = tested on: paraquat resistant ryegrass (Lolium rigidum); assay: Glasshouse study, visual percentage control, Example 2; details: Paraquat Resistant Population, 28 days after applying
Description: (§4) A glasshouse study was conducted with two biotypes of ryegrass (Lolium rigidum), one paraquat resistant and the other paraquat susceptible. The plants (3 leaf stage) were planted in pots at a density of approximately 14,000 plants/m^2 to simulate field infestation levels. The treatments were based on commercial formulations of paraquat and glufosinate were diluted in water including the adjuvants AMS (5%) and Agral 90 (0.25%). The treatments were applied to the plants in a spray volume equivalent to 400 lts/ha. Each treatment was replicated three times. The effectiveness of the treatments in controlling the plants was assessed visually 28 days after applying the herbicide. The assessment was made as a percentage control −0% representing no damage and 100% representing death of all the plants.

[4] = tested on: paraquat susceptible ryegrass (Lolium rigidum); assay: as above; details: Paraquat Susceptible Population, 28 days after applying
Description: as §4

[5] = tested on: paraquat resistant ryegrass (Lolium rigidum); assay: Glasshouse test of sequential (split) application, visual percentage control, Example 3; details: 28 days after the initial application
Description: A glasshouse test was conducted to examine the effect of applying the products sequentially (ie. in a split application), using paraquat resistant ryegrass (Lolium rigidum) plants. The plants were planted in pots and at the time of the initial application they were at the 4½ leaf stage. The treatments were based on commercial formulations of paraquat and glufosinate were diluted in water including the adjuvants AMS (5%) and Agral 90 (0.25%). The treatments' were applied to the plants in a spray volume equivalent to 400 lts/ha. Each treatment was replicated 3 times. The effectiveness of the treatments in controlling the plants was assessed visually 28 days after the initial application date. The assessment was made as a percentage control −0% representing no damage and 100% representing death of all the plants.

[6] = glufosinate ammonium 50 g/ha alone
[7] = glufosinate ammonium 100 g/ha alone
[8] = glufosinate ammonium 200 g/ha alone
[9] = glufosinate ammonium 400 g/ha alone
[10] = glufosinate ammonium 600 g/ha alone

## CP(=O)(O)CCC(N)C(=O)O (racemic) [glufosinate ammonium, ammonium 4-[hydrox(methyl)phosphinoyl]-DL-homoalaninate]
[1]; [6]
  Average % control of RL 1: 0%
[1]; [7]
  Average % control of RL 1: 0%
[1]; [8]
  Average % control of RL 1: 3%
[1]; [9]
  Average % control of RL 1: 2%
[1]; [10]
  Average % control of RL 1: 78%
[2]; [6]
  Average % control of RL 2: 0%
[2]; [7]
  Average % control of RL 2: 0%
[2]; [8]
  Average % control of RL 2: 2%
[2]; [9]
  Average % control of RL 2: 33%
[2]; [10]
  Average % control of RL 2: 89%
[3]; Glufosinate 300 g ai/ha
  Percentage Control: 44%
[4]; Glufosinate 300 g ai/ha
  Percentage Control: 85%
[5]; 150 g ai/ha
  % Control: 0%
[5]; 200 g a/ha
  % Control: 33%
[5]; 300 g ai/ha
  % Control: 83%

## C[n+]1ccc(-c2cc[n+](C)cc2)cc1 [Paraquat, 1,1′-dimethyl-4,4′-bipyridylium cation]
[1]; paraquat 10 g/ha alone
  Average % control of RL 1: 0%
[1]; paraquat 20 g/ha alone
  Average % control of RL 1: 0%
[1]; paraquat 60 g/ha alone
  Average % control of RL 1: 0%
[1]; paraquat 80 g/ha alone
  Average % control of RL 1: 17%
[1]; paraquat 400 g/ha alone
  Average % control of RL 1: 33%
[1]; paraquat 1200 g/ha alone
  Average % control of RL 1: 33%
[1]; paraquat 2000 g/ha alone
  Average % control of RL 1: 98%
[1]; paraquat 4000 g/ha alone
  Average % control of RL 1: 100%
[2]; paraquat 10 g/ha alone
  Average % control of RL 2: 0%
[2]; paraquat 20 g/ha alone
  Average % control of RL 2: 0%
[2]; paraquat 60 g/ha alone
  Average % control of RL 2: 0%
[2]; paraquat 80 g/ha alone
  Average % control of RL 2: 0%
[2]; paraquat 400 g/ha alone
  Average % control of RL 2: 0%
[2]; paraquat 1200 g/ha alone
  Average % control of RL 2: 7%
[2]; paraquat 2000 g/ha alone
  Average % control of RL 2: 3%
[2]; paraquat 4000 g/ha alone
  Average % control of RL 2: 42%
[3]; Paraquat 600 g ai/ha
  Percentage Control: 29%
[4]; Paraquat 600 g ai/ha
  Percentage Control: 100%
[5]; 600 g ai/ha
  % Control: 58%

From patent US20090305890A1, “METHOD OF CONTROLLING PLANTS” (SYNGENTA LIMITED, priority 2005, published 2009)
